In publication PMC9896891 (International Journal of Biological Macromolecules, 2023):
Structures can show the parent of a compound that is named as a salt. Where two headings read alike, the source gives them in different places.

Experiments:
SARS-CoV-2 [1] = type: cell-based
[2] = target: T1, SARS-CoV-2 Main protease (M^pro) (Severe acute respiratory syndrome coronavirus 2, UniProt P0DTD1); test: biochemical; type: binding
[3] = target: T1, SARS-CoV-2 Main protease (M^pro); type: binding
SARS-CoV-2 [4] = test: Treatment points; type: cell-based; conditions: Vero cells, 48 h
[5] = relative to M^pro alone (53.5 ± 1 °C)
[6] = screen of 156 drugs and natural compounds
[7] = compound 8, relative to H2–2/8/9

Cc1cccc(C)c1OCC(C)N (centres unmarked) [Compound 4, Mexiletine hydrochloride]
% Reduction in viral plaques (SARS-CoV-2 [1]): 75.5%
Kd [2]: ~21 µM
Modulation of Tm of M^pro [2]: +2.9 °C
Interaction with M^pro in STD-NMR spectroscopy [3]: interacting
Relative STD saturation, H-6/H-8 [3]: 86.87%
Relative STD saturation, aromatic H-7 [3]: 100%
Relative STD saturation, methyl H-3 [3]: 20%

Cc1cccc(Nc2ccccc2C(=O)O)c1C [Compound 2, Mefenamic acid]
% Reduction in viral plaques (SARS-CoV-2 [1]; 83 μM, Vero cells): 81–88%
Kd [2]: ~15 µM
Modulation of Tm of M^pro [2, 5]: +2.9 °C
Relative STD saturation, H3–16 ([3]; compound 2, largest STD integral, reference): 100%
Relative STD saturation, H3–15 ([3]; compound 2, relative to H3–16): 90.7%
Interaction with M^pro in STD-NMR spectroscopy [3, 6]: interacting

CCC(CC)COC(=O)[C@H](C)N[P@](=O)(OC[C@H]1O[C@@](C#N)(c2ccc3c(N)ncnn23)[C@H](O)[C@@H]1O)Oc1ccccc1 [Compound 13, Remdesivir]
% Reduction in viral plaques (SARS-CoV-2 [1]; 83 μM, Vero cells): 81–88%
Relative STD saturation, H-37 ([3]; compound 13, highest STD integral, reference): 100%
Relative STD saturation, H-18/H-22 ([3]; compound 13, relative to H-37): 64.95%
Relative STD saturation, H-19/H-21 ([3]; compound 13, relative to H-37): 69.88%
Relative STD saturation, H-20 ([3]; compound 13, relative to H-37): 55.82%
Relative STD saturation, H-34 ([3]; compound 13, relative to H-37): 78.86%
Relative STD saturation, H-35 ([3]; compound 13, relative to H-37): 80.79%

C[C@@H]1C[C@H]2[C@@H]3CCC4=CC(=O)C=C[C@]4(C)[C@@]3(F)[C@@H](O)C[C@]2(C)[C@@]1(O)C(=O)CO [Compound 12, Dexamethasone]
% Reduction in viral plaques (SARS-CoV-2 [1]; 83 μM, Vero cells): 77.27%
Modulation of Tm of M^pro [2, 5]: +2.9 °C
Relative STD saturation, Ha-6 ([3]; compound 12, highest STD integral, reference): 100%
Relative STD saturation, Ha-7 ([3]; compound 12, relative to Ha-6): 58.8%
Relative STD saturation, Hb-6 ([3]; compound 12, relative to Ha-6): 54.8%
Relative STD saturation, Hb-7 ([3]; compound 12, relative to Ha-6): 18.77%
Relative STD saturation, methyl H3–19 ([3]; compound 12, relative to Ha-6): 4.13%

CCCCc1nc(Cl)c(CO)n1Cc1ccc(-c2ccccc2-c2nn[nH]n2)cc1 [Compound 3, Losartan potassium]
% Reduction in viral plaques (SARS-CoV-2 [1]; 83 μM, Vero cells): 54.54%
Kd [2]: ~64 µM
Relative STD saturation, H2–7 ([3]; compound 3, largest STD integral, reference): 100%
Relative STD saturation, H2–8 ([3]; compound 3, relative to H2–7): 45.22%
Relative STD saturation, H2–9 ([3]; compound 3, relative to H2–7): 42.15%
Relative STD saturation, H3–10 ([3]; compound 3, relative to H2–7): 31.49%
Interaction with M^pro in STD-NMR spectroscopy [3, 6]: interacting

COc1ccc2c(c1)[C@]13CCCC[C@@H]1[C@H](C2)N(C)CC3 [Compound 9, Dextromethorphan]
% Reduction in viral plaques (SARS-CoV-2 [1]; 83 μM, Vero cells): 81–88%
Relative STD saturation, 2H-16 ([3]; compound 9, reference proton): highest saturation
Relative STD saturation, H-6 ([3]; compound 9, relative to 2H-16): 95%
Relative STD saturation, aromatic H-10 ([3]; compound 9, relative to 2H-16): 70.6%
Relative STD saturation, methyl 3H-18 ([3]; compound 9, relative to 2H-16): 30.8%
Relative STD saturation, methyl 3H-20 ([3]; compound 9, relative to 2H-16): 12.8%
Interaction with M^pro in STD-NMR spectroscopy [3, 6]: interacting
Therapeutic Effect, Log10 of Fold Change (SARS-CoV-2 [4]; 83 μM): 2.11

CC(C(=O)O)c1ccc(-c2ccccc2)c(F)c1 (centres unmarked) [Compound 7, Flurbiprofen]
% Reduction in viral plaques (SARS-CoV-2 [1]; 83 μM, Vero cells): 59.09%
Kd [2]: ~66 µM
Relative STD saturation, methyl H-1 ([3]; compound 7, highest integral, reference): 100%
Relative STD saturation, H-2 ([3]; compound 7, relative to H-1): 44.10%
Interaction with M^pro in STD-NMR spectroscopy [3, 6]: interacting

NC12CC3CC(CC(C3)C1)C2 [Compound 8, Amantadine hydrochloride]
% Reduction in viral plaques (SARS-CoV-2 [1]; 83 μM, Vero cells): 77.27%
Modulation of Tm of M^pro [2, 5]: +2.9 °C
Relative STD saturation, H2–2, H2–8, H2–9 ([3]; compound 8, highest STD integral, reference): 100%
Relative STD saturation, H2–4, H2–6, H2–10 [3, 7]: 59–64%
Relative STD saturation, H-3, H-5, H-7 [3, 7]: 78%
Interaction with M^pro in STD-NMR spectroscopy [3, 6]: interacting

CCN(CC)CCCC(C)Nc1ccnc2cc(Cl)ccc12 (centres unmarked) [Compound 11, Chloroquine phosphate]
% Reduction in viral plaques (SARS-CoV-2 [1]; 41.5 μM, Vero cells): 63.2%
% Reduction in viral plaques (SARS-CoV-2 [1]; 83 μM, Vero cells): 100%

COc1ccc([C@@H]2Sc3ccccc3N(CCN(C)C)C(=O)[C@@H]2OC(C)=O)cc1 [Compound 1, Diltiazem hydrochloride]
% Reduction in viral plaques (SARS-CoV-2 [1]; 83 μM, Vero cells): 81–88%
Kd [2]: ~44 µM
Relative STD saturation, C-4 methyl protons (H3–4) ([3]; compound 1, largest STD integral, reference): 100%
Relative STD saturation, H3–28/H3–29 ([3]; compound 1, relative to H3–4): 31.99%
Interaction with M^pro in STD-NMR spectroscopy [3, 6]: interacting
Therapeutic Effect, Log10 of Fold Change (SARS-CoV-2 [4]; 42.5 μM): 2.00
Therapeutic Effect, Log10 of Fold Change (SARS-CoV-2 [4]; 83 μM): 2.02
